Assay results as given in patent US20250170101A1, “MONOACYLGLYCEROL LIPASE INHIBITORS AND USE THEREOF FOR THE TREATMENT AND MANAGEMENT OF PAIN AND RELATED CONDITIONS” (Psy Therapeutics, Inc., priority 2021, published 2025).

Key:
[1] = Pharmacokinetic study of compounds in mice, Example 25; format: in vivo, male C57BL/6 mice; conditions: Brain, Oral, 5 mg/kg
Experimental: Healthy male C57BL/6 mice (8-12 weeks old) weighing between 17 to 35 g were procured from Global, India. Temperature and humidity were maintained at 22±3° C. and 30-70%, respectively and illumination was controlled to give a sequence of 12 hr light and 12 hr dark cycle. Temperature and humidity were recorded by auto-controlled data logger system. All the animals were provided laboratory rodent diet. Reverse osmosis water treated with ultraviolet light was provided ad libitum.
Protocol A: Twenty-four male mice were divided into two groups as; Group 1: 30 mg/kg/IP; Plasma and brain; Number of animals=12; Animal #1-12. Group 2: 30 mg/kg/PO; Plasma and brain; Number of animals=12; Animal #13-24. […] All samples were processed for analysis by protein precipitation using acetonitrile and analyzed with fit-for-purpose LC/MS/MS method (LLOQ—2.02 ng/mL for plasma and 6.06 ng/g for brain). Pharmacokinetic parameters were calculated using the non-compartmental analysis tool of Phoenix WinNonlin®.
Protocol B: Thirty six mice were included into the study and divided in to three groups as Group 1 (n=12), Group 2 (n=12) and Group 3 (n=12) with n=2 mice per time-point design. […] Plasma and brain samples were quantified by fit-for-purpose LC-MS/MS method (LLOQ: 1.01 ng/mL for plasma and 2.02 ng/mL for brain). […]

MAGL enzyme = target: T1, MAGL enzyme (Homo sapiens, UniProt Q99685); experiment: MAGL reversible inhibition assay (washout), Example 22; format: biochemical; set-up: % MAGL activity returning after washout: concentration or dose not given beside the values; conditions: for degree to which MAGL enzymatic activity returned following washout of test compounds: pre-washout compound concentration 1 μM; for % MAGL activity returning after washout: relative to control (no inhibitor before washout), immediately following 30 minute washout
T1 sequence (Q99685 1-303): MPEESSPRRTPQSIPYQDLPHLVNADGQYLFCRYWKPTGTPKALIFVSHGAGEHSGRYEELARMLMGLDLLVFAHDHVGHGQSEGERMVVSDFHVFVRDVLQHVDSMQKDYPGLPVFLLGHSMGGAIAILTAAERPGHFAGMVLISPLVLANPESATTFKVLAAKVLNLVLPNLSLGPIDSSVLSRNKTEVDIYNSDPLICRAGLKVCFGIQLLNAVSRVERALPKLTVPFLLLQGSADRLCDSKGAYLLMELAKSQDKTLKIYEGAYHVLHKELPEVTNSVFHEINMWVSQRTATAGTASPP
Experimental: The reversible mechanism of MAGL inhibition of a test compound of Formula (I) can be determined. Flag-tagged MAGL enzyme will be immobilized on anti-Flag beads. Immobilized enzyme will be incubated+/−inhibitor at a dose that produces complete inhibition. Colorimetric substrate (4-NPA) will be added and the reaction monitored on a plate reader for 30 minutes to verify complete inhibition. Immobilized enzyme will then be washed thoroughly to remove the inhibitor, and fresh substrate will be added. The reaction will be monitored for an additional 30 minutes; returning enzymatic activity will indicate reversibility of inhibition. […]
For some test compounds, % activity returning after washout may be less than 100%/if complete compound unbinding takes longer than 30 minutes.

human MAGL = target: T2, human MAGL (Homo sapiens, UniProt Q99685); experiment: MAGL inhibition potency (IC50) with 4NPA substrate, Example 20, methods of Table C; format: biochemical; conditions: Method 12: Enzyme Conc 15, Reaction Biology (15 nM); read-out: MAGL Potency (Detection Method)
T2 construct: recombinant MAGL enzyme (aa 2-303 RBC, internal preparation)
T2 sequence (Q99685 2-303): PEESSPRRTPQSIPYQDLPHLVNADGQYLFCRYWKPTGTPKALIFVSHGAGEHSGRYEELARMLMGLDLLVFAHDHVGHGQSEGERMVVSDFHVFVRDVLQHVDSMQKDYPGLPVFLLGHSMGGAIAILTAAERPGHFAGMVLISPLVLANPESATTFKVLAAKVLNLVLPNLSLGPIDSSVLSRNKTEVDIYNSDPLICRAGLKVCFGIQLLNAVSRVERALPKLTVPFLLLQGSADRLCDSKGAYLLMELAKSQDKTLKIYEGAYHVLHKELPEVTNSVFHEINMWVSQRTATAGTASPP

[2] = system: Acute Post-Operative Pain (Brennan) mice model; experiment: Acute Post-Operative Pain (Brennan) mice model, Example 26; format: in vivo, Mus Musculus C57BL/6; conditions: 50 & 150 mg/kg, IP; at 30, 60 & 90 min
Description: The aim of this experiment was to evaluate effect of the test compounds Compound 74 and JZL-184 in Acute Post-Operative Pain (Brennan) mice model. • Mouse model: Mus Musculus & C57BL/6, male, 6-8 weeks • End points: mechanical allodynia and brain 2-AG (optional)
(§1) • Animals was anaesthetized under Isoflorane anesthesia. • Using aseptic conditions, prepared the plantar aspect of left hind paw with a 10% povidone-iodine solution and place the paw through a hole in a sterile cloth drape. Made a 0.5-cm longitudinal incision through skin and fascia of the paw with a no. 11 scalpel blade, beginning 0.2 cm from the proximal edge of the heel and extending toward the digits. • Elevated the underlying muscle with small curved forceps and incised longitudinally with the scalpel blade, keeping the muscle origin and insertion intact. • After homeostasis with gentle pressure, apposed the skin with 5-0 slik sutures. Cover the wound site.

2-AG levels in brain = experiment: Estimation of 2-AG in mouse brain after single intraperitoneal administration, Examples 23 and 24; format: in vivo, male C57BL/6 mice; conditions: single IP
Experimental: (§2) This experiment was performed to determine plasma pharmacokinetics and estimate 2-AG levels in male C57BL/6 mice brain following a single intraperitoneal administration of Compound-74 (Dose: 5, 15, 50 and 150 mg/kg). The experiment was repeated at 150 mg/kg on 3 separate test dates to obtain the data shown in FIG. 1A (plasma and brain concentration of Compound 74 30 minutes after IP injection), and on the first and third test dates to obtain the data shown in FIG. 1B (brain concentration of 2-AG30 minutes after IP injection of Compound 74). • Compound 74, Molecular Wt.: 405.46 (Freebase), % Purity: Considered 100%. • Formulation: DMSO • Dose: 5, 15, 50 and 150 mg/kg • Dose volume: 2 mL/kg • Feeding regimen: freely fed • Groups:
Study Design: A total of thirty male mice were used into the study and divided in to five groups with six mice in each group (n=6 mice/group/treatment design). Animals in Group 1 to Group 4 were administered intraperitoneally with Compound 74 solution formulation at 5, 15, 50 and 150 mg/kg dose, respectively. Animals in Group 5 were administered intraperitoneally with vehicle at 2 mL/kg dose. Blood and brain samples were collected at 0.5 h post dose. […]
Analysis: Brain samples were processed for 2-AG estimation. 2-AG levels were the detected values. Plasma concentrations were determined by fit for purpose LC-MS/MS method. […]

[3] = Plasma and brain concentrations after single intraperitoneal administration, Examples 23 and 24; format: in vivo, male C57BL/6 mice; conditions: 0.5 h
Experimental: as §2
Study Design: A total of thirty male mice were used into the study and divided in to five groups with six mice in each group (n=6 mice/group/treatment design). Animals in Group 1 to Group 4 were administered intraperitoneally with Compound 74 solution formulation at 5, 15, 50 and 150 mg/kg dose, respectively. Animals in Group 5 were administered intraperitoneally with vehicle at 2 mL/kg dose. Blood and brain samples were collected at 0.5 h post dose. Mice were euthanized by cervical dislocation and brain samples were dissected rapidly and snap frozen in liquid nitrogen, weighed and homogenized in 2 mL of acetonitrile containing 2-AGd5. Blood samples were centrifuged at 4000 rpm for 10 minutes at 4° C. Plasma was harvested and separated in pre-labeled tubes. All samples were stored below −70° C. until bioanalysis.
Analysis: Brain samples were processed for 2-AG estimation. 2-AG levels were the detected values. Plasma concentrations were determined by fit for purpose LC-MS/MS method. LLOQ: 5.09 ng/mL (Plasma and brain)
This experiment was performed to determine plasma pharmacokinetics and estimate 2-AG levels in male C57BL/6 mice brain following a single intraperitoneal administration of Compound-473 (Dose: 20 mg/kg). • Compound 473, Molecular Wt.: 463.41 (Freebase), % Purity: >98%. • Formulation: DMSO • Dose: 20 mg/kg • Dose volume: 10 mL/kg • Feeding regimen: Food and water ad libitum • Groups:
Study Design: A total of twelve C57BL/6 male mice were used in this study. Six animals were administered intraperitoneally with solution formulation of PSY-05-00473-002 at 20 mg/kg dose. Six animals were administered vehicle (5% NMP, 5% Solutol HS15 and 90% Normal saline) intraperitoneally at 10 mL/kg dose volume. Blood samples (approximately 60 μL) were collected under light isoflurane anesthesia from a set of six mice at 0.5 h. Plasma was harvested by centrifugation of blood and stored at −70±10° C. until analysis. After blood collection, mice were euthanized by cervical dislocation and brain samples were dissected rapidly and snapped frozen in liquid nitrogen and stored at −80. To homogenize, removed brain samples from the freezer, were divided into two equal hemispheres and weighed while still in frozen condition, and begun homogenization/extraction procedure without allowing the brain samples to thaw. One part is used for PK estimation and the other part is used for 2-AG estimation.
Analysis: For PK estimation, brain samples were homogenized in 2 volumes of PBS of brain weight. Total homogenate volume was three times of the brain weight. For 2-AG estimation, the frozen brain samples were homogenized in 2 mL acetonitrile containing 2-AGd5 (8.88 nmoles) will be incubated overnight at −20° C. to precipitate proteins. Blood samples were centrifuged at 10000 rpm for 10 minutes at 4° C. All samples were stored below −70° C. until bioanalysis. Plasma and brain homogenate samples were quantified by fit-for-purpose LC-MS/MS method (LLOQ: 1.02 ng/mL for plasma and 2.03 ng/mL for brain).

[4] = system: Post-Operative Pain (Brennan) mouse model; experiment: Chronic treatment in Post-Operative Pain (Brennan) mouse model, Example 27; format: in vivo, Mus Musculus C57BL/6; conditions: IP
Description: The aim of this experiment was to evaluate effect of the test compounds Compound 74 and JZL-184 in after Chronic treatment in a Post-Operative Pain (Brennan) mouse model. • Mouse model: Mus Musculus & C57BL/6, male, 6-8 weeks • End points: mechanical allodynia and body weight
as §1

Compound | AUClast [1] | degree to which MAGL enzymatic activity returned following washout of test compounds (MAGL enzyme) | % MAGL activity returning after washout (MAGL enzyme) | IC50 (human MAGL) | mechanical allodynia (Threshold, g) vs Vehicle control [2] | levels of 2-AG compared to baseline (vehicle treatment) (2-AG levels in brain; 5 and 15 mg/kg dose) | levels of 2-AG compared to baseline (vehicle treatment) (2-AG levels in brain; 50 and 150 mg/kg dose groups) | Brain Plama Ratio (Kp) range ([3]; IP 5 mg/kg) | Plasma concentration range ([3]; IP 5 mg/kg) | Brain Plama Ratio (Kp) range ([3]; IP 15 mg/kg) | Brain concentration range ([3]; IP 15 mg/kg) | Plasma concentration range ([3]; IP 15 mg/kg) | Brain Plama Ratio (Kp) range ([3]; IP 50 mg/kg) | Plasma concentration range ([3]; IP 50 mg/kg) | Brain Plama Ratio (Kp) range ([3]; IP 150 mg/kg) | Brain concentration range ([3]; IP 150 mg/kg) | Plasma concentration range ([3]; IP 150 mg/kg) | mechanical allodynia (Threshold, g) vs Vehicle control ([4]; 50 mg/kg, QD×8 days) | mechanical allodynia (Threshold, g) vs Vehicle control ([4]; 50 & 150 mg/kg, single dose)
Cc1cnn(C2CC3(C2)CN(C(=O)c2cc(O)ccc2F)C3)c1-c1cc(F)ccc1F (single isomer, unassigned) [Compound 476, {6-[5-(2,5-difluorophenyl)-4-methyl-1-pyrazolyl]-2-aza-2-spiro[3.3]heptyl}(2-fluoro-5-hydroxyphenyl)methanone] | 223.64 ng·h/mL |  |  |  |  |  |  |  |  |  |  |  |  |  |  |  |  |  | 
Cc1cn(C2CC3(C2)CN(C(=O)c2cc(O)ccc2F)C3)nc1-c1cc(F)ccc1Cl (single isomer, unassigned) [Compound 520, {6-[3-(2-chloro-5-fluorophenyl)-4-methyl-1-pyrazolyl]-2-aza-2-spiro[3.3]heptyl}(2-fluoro-5-hydroxyphenyl)methanone] |  | 100 | >50% | < 50 nM |  |  |  |  |  |  |  |  |  |  |  |  |  |  | 
Cc1cc(C2CC3(C2)CN(C(=O)c2cc(O)ccc2F)C3)n(-c2ccccc2C)n1 [Compound 74, (2-fluoro-5-hydroxyphenyl)(6-(3-methyl-1-(o-tolyl)-1H-pyrazol-5-yl)-2-azaspiro[3.3]heptan-2-yl)methanone] |  | 162 | >50% |  | significant decrease in mechanical allodynia | elevated slightly | significant increase | 0.51-0.68 | 12 to 186 ng/mL | 0.16-0.44 | 25 to 67 ng/g | 70 to 414 ng/mL | 0.06-0.08 | 447 to 14914 ng/mL | 0.07-0.20 | 2412 to 12111 ng/g | 34920 to 70256 ng/mL | significant decrease in mechanical allodynia | significant decrease in mechanical allodynia
